Laboratory results: patent US9550811B2, “Peptide scaffold design” (BIONOR IMMUNO AS, priority 2010, dated 2017)
Where no end group is shown, it is not given here. [ ]: non-standard residue; d: D form. Nle = CCCC[C@H](N)C(=O)O

Experiments:
Assay in all cases: REVEAL binding assay
Settings in all cases: score as percentage of the signal generated by the positive control peptide
[1] = tested on: HLA-B35
[2] = tested on: HLA-B15
[3] = tested on: HLA-B40
How it was run: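 Synthetic ninemer peptides were tested for stabilising native MHC class I–peptide complexes, detected by conformation. Score is the signal as a percentage of a known T-cell epitope positive control, with pass/fail call; an intermediate-affinity control peptide checks assay performance.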

[4] = tested on: HLA-A1
[5] = tested on: HLA-B14
Description: (§2) HLA-A1, HLA-A2, HLA-A3, HLA-A11, HLA-A24, HLA-A29, HLA-B7, HLA-B8, HLA-B14, HLA-B15, HLA-B27, HLA-B35, HLA-B40.
(§3) The REVEAL™ binding assay determined the ability of each candidate peptide to bind to one or more MHC class I alleles and stabilizing the MHC-peptide complex. […] Detection is based on the presence or absence of the native conformation of the MHC-peptide complex. Each peptide is given a score relative to the positive control peptide, which is a known T cell epitope.

[6] = molecular target: HLA-B7 (Homo sapiens, UniProt P01889)
Sequence of HLA-B7 (P61769 21-119): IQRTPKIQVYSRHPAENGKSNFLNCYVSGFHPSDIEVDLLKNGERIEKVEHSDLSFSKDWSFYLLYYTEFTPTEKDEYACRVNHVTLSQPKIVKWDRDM
Sequence of HLA-B7 (P01889 25-299): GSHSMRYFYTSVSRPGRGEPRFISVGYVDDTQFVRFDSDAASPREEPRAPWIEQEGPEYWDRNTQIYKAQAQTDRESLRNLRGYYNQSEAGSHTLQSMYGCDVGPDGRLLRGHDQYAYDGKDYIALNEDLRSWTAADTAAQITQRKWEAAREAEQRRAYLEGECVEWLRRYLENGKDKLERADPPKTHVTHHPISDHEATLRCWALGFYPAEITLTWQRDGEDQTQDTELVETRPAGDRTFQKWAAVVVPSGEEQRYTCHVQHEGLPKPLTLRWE
How it was run: (§1)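 Synthetic nonamer peptides were tested for their ability to bind and stabilize MHC class I–peptide complexes, detected by the native conformation of the complex. Each peptide is scored relative to a positive-control known T-cell epitope.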

[7] = molecular target: HLA-B27 (Homo sapiens, UniProt P01889, D138H/D201E/E176V/E204Q/G107R/H137Y/K202T/N104T/N87E/Q56L/Q94K/R106L/R155S/R180L/S101D/S121N/S48T/Y140D/Y33H/Y91C)
How it was run: as §1

[8] = molecular target: HLA-A2 (Homo sapiens, UniProt P04439, D140Y/D185E/D98H/E176V/E277Q/G131W/G231S/I119V/I121R/I166T/I218V/N151K/N90K/P208A/P217A/Q86G/Q94H/R138H/R169H)
How it was run: as §1

[9] = molecular target: HLA-A11 (Homo sapiens, UniProt P04439, A114D/F33Y/S129P)
How it was run: as §1

[10] = molecular target: HLA-A3 (Homo sapiens, UniProt P04439)
Sequence of HLA-A3 (P04439 25-299): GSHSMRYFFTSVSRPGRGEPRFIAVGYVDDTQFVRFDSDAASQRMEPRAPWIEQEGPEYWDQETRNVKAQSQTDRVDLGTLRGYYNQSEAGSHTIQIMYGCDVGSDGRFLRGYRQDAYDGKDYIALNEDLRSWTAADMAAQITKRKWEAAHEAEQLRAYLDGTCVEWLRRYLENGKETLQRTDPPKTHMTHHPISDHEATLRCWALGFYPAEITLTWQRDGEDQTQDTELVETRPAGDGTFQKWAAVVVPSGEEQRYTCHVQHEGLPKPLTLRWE
Sequence of HLA-A3 (P61769 21-119, further chain): as the sequence (P61769 21-119) above
How it was run: as §1

[11] = tested on: HLA-A29
[12] = tested on: HLA-A24
Protocol: Binding properties to HLA for the ninemers listed in table 6 were tested for the following HLA-classes:
as §2, §3

[13] = tested on: HLA-B8

Substance	REVEAL binding score, HLA-type B35 [1]	REVEAL binding score, HLA-type B15 [2]	REVEAL binding score, HLA-type B40 [3]	REVEAL binding score, HLA-type A1 [4]	REVEAL binding score, HLA-type B14 [5]	REVEAL binding score, HLA-type B7 [6]	REVEAL binding score, HLA-type B27 [7]	REVEAL binding score, HLA-type A2 [8]	REVEAL binding score, HLA-type A11 [9]	REVEAL binding score, HLA-type A3 [10]	REVEAL binding score, HLA-type A29 [11]	REVEAL binding score, HLA-type A24 [12]	REVEAL binding score, HLA-type B8 [13]
IPLVGAPLG	30.74%	10.01%	41.10%	13.28%	0.03%	2.34%	0.35%	4.32%	2.05%	2.59%	26.79%	0.60%	17.87%
SRNLGKVID	4.59%	11.25%	33.93%	15.30%	0.67%	1.28%	1.28%	4.94%	4.45%	3.46%	9.94%	0.71%	16.71%
IGGNYLIPR	2.54%	15.02%	25.44%	17.90%	0.32%	20.49%	0.82%	7.04%	3.57%	2.88%	14.85%	0.89%	14.23%
EL[Nle]GYIPLI	2.55%	8.91%	43.10%	18.29%	0.14%	0.68%	0.67%	97.87%	3.21%	4.54%	20.93%	0.92%	17.05%
RVIAHGLRL	1.43%	106.77%	24.08%	11.60%	0.42%	102.96%	15.57%	18.68%	17.75%	13.32%	23.22%	0.79%	12.60%
GRVIETLTS	3.56%	8.31%	38.91%	14.42%	0.20%	1.25%	1.05%	5.26%	27.62%	12.46%	15.59%	0.88%	12.91%
TFSIYLIVS	2.48%	8.63%	23.23%	9.93%	0.37%	1.28%	1.49%	2.02%	2.89%	0.91%	8.58%	0.60%	9.52%
